The source of these data is patent publication US9593110B2, “Neprilysin inhibitors” (Theravence Biopharma R&D IP, LLC, priority 2014, dated 2017).

For this assay, the target named is human NEP (Homo sapiens (Human), UniProt P08473). Description: In vitro enzyme inhibition assay at human NEP. The settings on record: recombinant human NEP, fluorogenic peptide substrate, 37° C.; for Ki: pKi.

Broadly, the Ki is a dissociation constant, usually derived from enzyme kinetics or from competition with a known ligand.

Where only a bound is given, the exact number is not on record here.

Sequence of human NEP (P08473 52-750): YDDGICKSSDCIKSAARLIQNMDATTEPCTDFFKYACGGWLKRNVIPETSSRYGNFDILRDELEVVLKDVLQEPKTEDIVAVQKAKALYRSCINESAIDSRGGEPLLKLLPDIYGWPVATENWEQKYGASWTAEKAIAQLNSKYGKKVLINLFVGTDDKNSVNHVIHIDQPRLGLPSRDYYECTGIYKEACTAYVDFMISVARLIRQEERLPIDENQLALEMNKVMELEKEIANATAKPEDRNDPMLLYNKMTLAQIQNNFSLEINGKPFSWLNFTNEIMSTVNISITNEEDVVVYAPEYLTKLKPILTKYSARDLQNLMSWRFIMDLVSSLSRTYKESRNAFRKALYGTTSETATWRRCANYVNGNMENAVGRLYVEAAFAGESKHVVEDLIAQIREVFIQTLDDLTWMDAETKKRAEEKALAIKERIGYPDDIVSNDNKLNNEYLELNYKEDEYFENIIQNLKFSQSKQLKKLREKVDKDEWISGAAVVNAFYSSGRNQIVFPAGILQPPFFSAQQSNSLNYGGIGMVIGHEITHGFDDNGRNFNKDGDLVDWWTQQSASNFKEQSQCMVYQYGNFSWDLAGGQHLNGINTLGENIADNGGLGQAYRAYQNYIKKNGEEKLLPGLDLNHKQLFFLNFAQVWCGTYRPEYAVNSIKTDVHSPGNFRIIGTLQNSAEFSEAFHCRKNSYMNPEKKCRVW
Description: The inhibitory activities of compounds at human and rat neprilysin (EC 3.4.24.11; NEP) and human angiotensin converting enzyme (ACE) were determined using in vitro assays as described below.
The assays were performed in 384-well white opaque plates at 37° C. using the fluorogenic peptide substrates at a concentration of 10 μM in Assay Buffer (NEP: 50 mM HEPES, pH 7.5, 100 mM NaCl, 0.01% polyethylene glycol sorbitan monolaurate (Tween-20), 10 μM ZnSO4; ACE: 50 mM HEPES, pH 7.5, 100 mM NaCl, 0.01% Tween-20, 1 μM ZnSO4).
Test compounds were assayed over the range of concentrations from 10 μM to 20 pM. Test compounds were added to the enzymes and incubated for 30 minute at 37° C. prior to initiating the reaction by the addition of substrate.
Plates were read on a fluorometer with excitation and emission wavelengths set to 320 nm and 405 nm, respectively Inhibition constants were obtained by nonlinear regression of the data using the equation (GraphPad Software, Inc., San Diego, Calif.): v=v0/[1+(I/K′)] where v is the reaction rate, v0 is the uninhibited reaction rate, I is the inhibitor concentration and K′ is the apparent inhibition constant.

For the molecule `CNCCCC(=O)N[C@H](C[C@@H](Cc1ccc(-c2cc(Cl)ccc2F)cc1)NC(=O)c1c[nH]nn1)C(=O)O` [Example 71, (2R,4R)-5-(5′-Chloro-2′-fluorobiphenyl-4-yl)-2-(4-methylamino-butyrylamino)-4-[(1H-[1,2,3]triazole-4-carbonyl)amino]pentanoic Acid], the pKi entry was “≧9.0”.

As to `NCCCCC(=O)N[C@H](C[C@@H](Cc1ccc(-c2cc(Cl)ccc2F)cc1)NC(=O)c1c[nH]nn1)C(=O)O` [Example 72, (2R,4R)-2-(5-Amino-pentanoylamino)-5-(5′-chloro-2′-fluorobiphenyl-4-yl)-4-[(1H-[1,2,3]triazole-4-carbonyl)amino]pentanoic Acid], the pKi entry is given as “≧9.0”.

As for `CN(C)CCCC(=O)N[C@H](C[C@@H](Cc1ccc(-c2cc(Cl)ccc2F)cc1)NC(=O)c1c[nH]nn1)C(=O)O` [Example 73, (2R,4R)-5-(5′-Chloro-2′-fluorobiphenyl-4-yl)-2-(4-dimethylaminobutyrylamino)-4-[(1H-[1,2,3]triazole-4-carbonyl)amino]pentanoic Acid], the pKi entry was “≧9.0”.

With `COCCCNC[C@H](C[C@@H](Cc1ccc(-c2cc(Cl)ccc2F)cc1)NC(=O)c1cnn[nH]1)C(=O)O` [Example 74, (2S,4S)-5-(5′-Chloro-2′-fluorobiphenyl-4-yl)-2-[(3-methoxypropylamino)-methyl]-4-[(3H-[1,2,3]triazole-4-carbonyl)amino]pentanoic Acid], the Ki was 1.26 to 3.16 nM.

Take `CN(C)C[C@H](C[C@@H](Cc1ccc(-c2cc(Cl)ccc2F)cc1)NC(=O)c1cnn[nH]1)C(=O)O` [Example 75, (2S,4S)-5-(5′-Chloro-2′-fluorobiphenyl-4-yl)-2-dimethylaminomethyl-4-[(3H-[1,2,3]triazole-4-carbonyl)amino]pentanoic Acid]: the Ki lay within 1.26 to 3.16 nM.

In the case of `COC[C@H](C[C@@H](Cc1ccc(-c2cccc(Br)c2)cc1)NC(=O)c1cnn[nH]1)C(=O)O` [Example 80, (2S,4S)-5-(3′-Bromobiphenyl-4-yl)-2-methoxymethyl-4-[(3H-[1,2,3]triazole-4-carbonyl)amino]pentanoic Acid], the pKi entry is “≧9.0”.

`O=C(N[C@H](Cc1ccc(-c2cc(Cl)ccc2F)cc1)C[C@@H](CNCCF)C(=O)O)c1cnn[nH]1` [Example 81, (2S,4S)-5-(5′-Chloro-2′-fluorobiphenyl-4-yl)-2-[(2-fluoroethylamino)methyl]-4-[(3H-[1,2,3]triazole-4-carbonyl)amino]pentanoic Acid]: the Ki lay in the range of 3.16 to 10 nM.

As for `O=C(N[C@H](Cc1ccc(-c2cc(Cl)ccc2F)cc1)C[C@@H](CNCC(F)F)C(=O)O)c1cnn[nH]1` [Example 82a, (2S,4S)-5-(5′-Chloro-2′-fluorobiphenyl-4-yl)-2-[(2,2-difluoroethylamino)methyl]-4-[(3H-[1,2,3]triazole-4-carbonyl)amino]pentanoic Acid], the Ki was at most 1 nM.

Take `O=C(N[C@H](Cc1ccc(-c2cc(Cl)ccc2F)cc1)C[C@@H](CN1CC(O)C1)C(=O)O)c1cnn[nH]1` [Example 83b, (2S,4S)-5-(5′-Chloro-2′-fluorobiphenyl-4-yl)-2-(3-hydroxyazetidin-1-ylmethyl)-4-[(3H-[1,2,3]triazole-4-carbonyl)amino]pentanoic Acid]: the Ki was at most 1 nM.

Take `O=C(N[C@H](Cc1ccc(-c2cc(Cl)ccc2F)cc1)C[C@@H](CN1CCC1)C(=O)O)c1cnn[nH]1` [Example 84b, (2S,4S)-2-Azetidin-1-ylmethyl-5-(5′-chloro-2′-fluorobiphenyl-4-yl)-4-[(3H-[1,2,3]triazole-4-carbonyl)amino]pentanoic Acid]: the Ki was at most 1 nM.

As to `COCCN(C)C[C@H](C[C@@H](Cc1ccc(-c2cc(Cl)ccc2F)cc1)NC(=O)c1cnn[nH]1)C(=O)O` [Example 85a, (2S,4S)-5-(5′-Chloro-2′-fluorobiphenyl-4-yl)-2-{[(2-methoxyethyl)methylamino]methyl}-4-[(3H-[1,2,3]triazole-4-carbonyl)amino]pentanoic Acid], the Ki was at most 1 nM.

`O=C(N[C@H](Cc1ccc(-c2cc(Cl)ccc2F)cc1)C[C@@H](CNCCCO)C(=O)O)c1cnn[nH]1` [Example 87b, (2S,4S)-5-(5′-Chloro-2′-fluorobiphenyl-4-yl)-2-[(3-hydroxypropylamino)methyl]-4-[(3H-[1,2,3]triazole-4-carbonyl)amino]pentanoic Acid]: the Ki was at most 1 nM.

For `N#CC1CN(C[C@H](C[C@@H](Cc2ccc(-c3cc(Cl)ccc3F)cc2)NC(=O)c2cnn[nH]2)C(=O)O)C1` [Example 88b, (2S,4S)-5-(5′-Chloro-2′-fluorobiphenyl-4-yl)-2-(3-cyanoazetidin-1-ylmethyl)-4-[(3H-[1,2,3]triazole-4-carbonyl)amino]pentanoic Acid], the Ki is at most 1 nM.

For the molecule `CC1(C)CN(C[C@H](C[C@@H](Cc2ccc(-c3cc(Cl)ccc3F)cc2)NC(=O)c2cnn[nH]2)C(=O)O)C1` [Example 89b, (2S,4S)-5-(5′-Chloro-2′-fluorobiphenyl-4-yl)-2-(3,3-dimethylazetidin-1-ylmethyl)-4-[(3H-[1,2,3]triazole-4-carbonyl)amino]pentanoic Acid], the Ki was at most 1 nM.

As to `O=C(N[C@H](Cc1ccc(-c2cc(Cl)ccc2F)cc1)C[C@@H](CN1CC(F)(F)C1)C(=O)O)c1cnn[nH]1` [Example 90b, (2S,4S)-5-(5′-Chloro-2′-fluorobiphenyl-4-yl)-2-(3,3-difluoroazetidin-1-ylmethyl)-4-[(3H-[1,2,3]triazole-4-carbonyl)amino]pentanoic Acid], the Ki was at most 1 nM.

For the molecule `O=C(N[C@H](Cc1ccc(-c2cc(Cl)ccc2F)cc1)C[C@@H](CN1CC(F)C1)C(=O)O)c1cnn[nH]1` [Example 91b, (2S,4S)-5-(5′-Chloro-2′-fluorobiphenyl-4-yl)-2-(3-fluoroazetidin-1-ylmethyl)-4-[(3H-[1,2,3]triazole-4-carbonyl)amino]pentanoic Acid], the Ki was at most 1 nM.

`O=C(N[C@H](Cc1ccc(-c2cc(Cl)ccc2F)cc1)C[C@@H](CN1CC(CO)(CO)C1)C(=O)O)c1cnn[nH]1` [Example 92b, (2S,4S)-2-(3,3-Bis-hydroxymethylazetidin-1-ylmethyl)-5-(5′-chloro-2′-fluorobiphenyl-4-yl)-4-[(3H-[1,2,3]triazole-4-carbonyl)amino]pentanoic Acid]: the Ki was at most 1 nM.

Regarding `O=C(N[C@H](Cc1ccc(-c2cc(Cl)ccc2F)cc1)C[C@@H](CN1CC(CO)C1)C(=O)O)c1cnn[nH]1` [Example 93b, (2S,4S)-5-(5′-Chloro-2′-fluorobiphenyl-4-yl)-2-(3-hydroxymethyl-azetidin-1-ylmethyl)-4-[(3H-[1,2,3]triazole-4-carbonyl)amino]pentanoic Acid], the Ki is at most 1 nM.

For `O=C(N[C@H](Cc1ccc(-c2cc(Cl)ccc2F)cc1)C[C@@H](CN1CC[C@@H]1CO)C(=O)O)c1cnn[nH]1` [Example 94b], the Ki is at most 1 nM.

As for `O=C(N[C@H](Cc1ccc(-c2cc(Cl)ccc2F)cc1)C[C@@H](CN1CC[C@H]1CO)C(=O)O)c1cnn[nH]1` [Example 95b, (2S,4S)-5-(5′-Chloro-2′-fluorobiphenyl-4-yl)-2-((S)-2-hydroxymethyl-azetidin-1-ylmethyl)-4-[(3H-[1,2,3]triazole-4-carbonyl)amino]pentanoic Acid], the Ki is at most 1 nM.

Take `NC(=O)C1CN(C[C@H](C[C@@H](Cc2ccc(-c3cc(Cl)ccc3F)cc2)NC(=O)c2cnn[nH]2)C(=O)O)C1` [Example 96b, (2S,4S)-2-(3-Carbamoylazetidin-1-ylmethyl)-5-(5′-chloro-2′-fluorobiphenyl-4-yl)-4-[(3H-[1,2,3]triazole-4-carbonyl)amino]pentanoic Acid]: the pKi entry is “≧9.0”.

Take `COCCCN[C@H](C[C@@H](Cc1ccc(-c2cc(Cl)ccc2F)cc1)NC(=O)c1c[nH]nn1)C(=O)O` [Example 97a]: the Ki was at most 1 nM.

Take `COCCN[C@H](C[C@@H](Cc1ccc(-c2cc(Cl)ccc2F)cc1)NC(=O)c1c[nH]nn1)C(=O)O` [Example 98a, (2R,4R)-5-(5′-Chloro-2′-fluorobiphenyl-4-yl)-2-(2-methoxyethylamino)-4-[(1H-[1,2,3]triazole-4-carbonyl)amino]pentanoic Acid]: the Ki is at most 1 nM.

For `CN(C)CCOC[C@H](C[C@@H](Cc1ccc(-c2cc(Cl)ccc2F)cc1)NC(=O)c1c[nH]nn1)C(=O)O` [Example 100, (2S,4S)-5-(5′-Chloro-2′-fluorobiphenyl-4-yl)-2-(2-dimethylamino-ethoxymethyl)-4-[(1H-[1,2,3]triazole-4-carbonyl)amino]pentanoic Acid], the Ki was at most 1 nM.

Take `CC1(O)CN(C[C@H](C[C@@H](Cc2ccc(-c3cc(Cl)ccc3F)cc2)NC(=O)c2c[nH]nn2)C(=O)O)C1` [Example 101b, (2S,4S)-5-(5′-Chloro-2′-fluorobiphenyl-4-yl)-2-(3-hydroxy-3-methylazetidin-1-ylmethyl)-4-[(1H-[1,2,3]triazole-4-carbonyl)amino]pentanoic Acid]: the Ki is at most 1 nM.

Turning to `CC1(O)CN(C[C@@H](C[C@@H](Cc2ccc(-c3cc(Cl)ccc3F)cc2)NC(=O)c2c[nH]nn2)C(=O)O)C1` [Example 101c, (2R,4S)-5-(5′-Chloro-2′-fluorobiphenyl-4-yl)-2-(3-hydroxy-3-methylazetidin-1-ylmethyl)-4-[(1H-[1,2,3]triazole-4-carbonyl)amino]pentanoic Acid], the Ki is 1.26 to 3.16 nM.

Turning to `COC1CN(C[C@H](C[C@@H](Cc2ccc(-c3cc(Cl)ccc3F)cc2)NC(=O)c2c[nH]nn2)C(=O)O)C1` [Example 102b, (2S,4S)-5-(5′-Chloro-2′-fluorobiphenyl-4-yl)-2-(3-methoxyazetidin-1-ylmethyl)-4-[(1H-[1,2,3]triazole-4-carbonyl)amino]pentanoic Acid], the Ki is at most 1 nM.

Consider `COC1CN(C[C@@H](C[C@@H](Cc2ccc(-c3cc(Cl)ccc3F)cc2)NC(=O)c2c[nH]nn2)C(=O)O)C1` [Example 102c, (2R,4S)-5-(5′-Chloro-2′-fluorobiphenyl-4-yl)-2-(3-methoxyazetidin-1-ylmethyl)-4-[(1H-[1,2,3]triazole-4-carbonyl)amino]pentanoic Acid], for which the Ki is at most 1 nM.
